Experimental data: publication PMC4526365 (Nature structural & molecular biology, 2015)

Assays:
[1] = target: T1, human intelectin-1 (hIntL-1) (Homo sapiens, UniProt Q8WWA0); experiment: competitive inhibition of hIntL-1 binding to β-Galf
Target sequence in this assay (Q8WWA0 19-298): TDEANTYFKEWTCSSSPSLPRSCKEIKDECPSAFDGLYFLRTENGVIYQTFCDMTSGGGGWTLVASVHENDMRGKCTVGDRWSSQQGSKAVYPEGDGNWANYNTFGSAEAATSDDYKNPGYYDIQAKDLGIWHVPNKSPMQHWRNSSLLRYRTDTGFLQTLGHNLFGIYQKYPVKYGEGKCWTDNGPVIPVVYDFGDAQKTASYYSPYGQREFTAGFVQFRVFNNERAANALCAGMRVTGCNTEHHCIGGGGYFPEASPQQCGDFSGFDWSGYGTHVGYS

[2] = target: T1, human intelectin-1 (hIntL-1); experiment: ELISA-like assay on immobilized biotinylated carbohydrate; format: binding
Target sequence in this assay (Q8WWA0 whole entry): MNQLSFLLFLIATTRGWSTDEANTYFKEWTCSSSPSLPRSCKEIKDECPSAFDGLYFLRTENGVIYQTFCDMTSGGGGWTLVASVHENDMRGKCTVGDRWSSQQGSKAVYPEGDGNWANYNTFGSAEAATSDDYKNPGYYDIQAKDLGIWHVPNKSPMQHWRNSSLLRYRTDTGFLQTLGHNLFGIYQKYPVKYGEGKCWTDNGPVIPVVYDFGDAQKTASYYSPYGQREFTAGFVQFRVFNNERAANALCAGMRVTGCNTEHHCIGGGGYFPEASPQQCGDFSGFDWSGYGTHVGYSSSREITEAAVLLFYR

Row | Molecule | competitive inhibition of hIntL-1 binding to β-Galf [1] | Kd [2] [nM]
1 | O=P(O)(O)OCC(O)CO (centres unmarked) [glycerol-1-phosphate] | glycerol and glycerol-1-phosphate— competitively inhibit the lectin from binding to β-Galf | –
2 | β-D-Galf (biotinylated, immobilized) [β-Galf] | – | 85 ± 14
